Source: patent US5696276A, “Process for preparing 5,8-dihydroxynaphthoquinone derivatives, novel 5,8-dihydroxynaphthoquinone derivatives and their use as anticancer agent” (Kuhnil Pharmaceutical Co., Ltd., priority 1993, dated 1997)
≈ marks a conversion by molar mass, not a printed value.

Assays:
A549 cancer cells = assay: Cytotoxic activity against A549 cancer cells (sulforhodamin B method); format: cell-based; conditions: Homo sapiens; A549 cells, SRB method, 48 hours; read-out: ED50, cytotoxic activity against A549
Description: The cytotoxic activity against A549 cancer cells was determined using a method for measuring sulforhodamin B (SRB), which was developed in the year 1989 by NIC for measuring anticancer activity of the drug in vitro. For the experiment, cells under subculturing were separated from the attached surface with trypsin-CDTA solution and then dispensed into a 24-well flat-bottom microplate (Falcon) so that the number of cells per well is 8×10^4 (A549). The microplate was incubated in a CO2 incubator for 24 hours to attach the dispensed cells to bottom. The medium was removed with aspirator. Then, 100 μl of the solution of the test compounds diluted in a log-dose of 6 kinds of concentration was added to each well containing cells, in a multiple of 3. The microplate was incubated for further 48 hours. In addition, the diluted solution of the test compounds above was filtered through a 0.22 μm filter, before addition to the cells, to keep the experiment under sterilized condition. The cells were incubated with the test compounds for 48 hours and then the medium was removed from each well. 100 μl of 10% trichloroacetic acid (TCA) was added to each well and then the plate was allowed to stand at 4° C. for one hour to fix the cells to the bottom of plate. After fixing the cells, the plate was washed 5 to 6 times with water to completely remove any remaining TCA solution and then dried at room temperature until water is no longer present. To the completely dried plate was added the dying solution of 0.4% SRB dissolved in 1% acetic acid in an amount of 250 μl per well to stain the cells for 30 minutes and then the plate was washed again 5 to 6 times with 1% acetic acid solution to remove the remaining SRB which is not bound to the cells. The stained cell plate was dried again at room temperature. Then, the dying solution was carefully dissolved in a certain amount of 10 mM Tris so that the O.D. value in the control group at 520 nm is 0.8-1.0 Å (optical density), and the optical density at 520nm was determined. The ED50 value was obtained from the determined optical density. To calculate the activity of the drug against cancer cells, the number of cells (Tz) at the beginning of the addition of drug, the number of cells (C) after incubation with the medium in the absence of drug for 48 hours and the number of cells (T) after incubation in the presence of drugs at each concentration for 48 hours were determined.
The anticancer activity of the test compounds was determined form the following equations. Specifically, in the […] the equation (T-Tz)/(C-Tz)×100 was used and in the case of Tz<T the equation (T-Tz)/Tz×100 was used. Then the IC50 value wich is the concentration of drug which inhibits the growth of cancer cells by 50% was calcualted from the above calculated values using a data regressive function of LOTUS programme and the cytotoxic activities of the test compounds were compared with each other.

S-180 sarcoma cells = assay: Animal experiment using Sarcoma S-180 cells (survival of mouse); format: in vivo, male ICR mouse; conditions: ip, S-180 ICR mouse, intraperitoneal, 7 to 8 injections; for responders at 15 µmol/kg / responders at 10 µmol/kg: 1200 h, read-out: Number of mouse survived for 50 days (converted); for responders at 15 µmol/kg / response vs control in vivo at 15 µmol/kg: daily dose 15 μmole (mg/kg/day given per compound); for response vs control in vivo at 15 µmol/kg / response vs control in vivo at 10 µmol/kg: read-out: T/C; for responders at 10 µmol/kg / response vs control in vivo at 10 µmol/kg: daily dose 10 μmole (mg/kg/day given per compound)
Description: In this experiment, healthy male ICR mouse weighing 20 to 25 g were used as test animal and were fed with water and feed without any restriction in the chamber controlled at the temperature of 23° to 24° C. As the feed, the antibiotic-free feed for mouse was used.
S-180 cells which were incubated for 7 days within abdominal cavity of ICR mouse were separated together with ascites. To the separated cells was added sterilized cold physiological saline and the mixture was centrifuged with 400×g for 2 minutes to separate the cell precipitate. The separated cell precipitate was suspended again in sterilized cold physiological saline and then centrifuged to remove the supernatant. Only S-180 cells were taken, excluding any red bllod cells incorporated therein, washed three times with the same method as above, and then suspended to obtain the cell suspension in concentration of 10^7 cells/ml by counting the number of cells with a haemacytometer. Each 0.1 ml of this cell suspension was transplanted in an abdominal cavity.
After 24 hours from the transplantation, mouse were divided so that each group contains 8 to 9 mouse. The test sample was dissolved in a predetermined amount of dimethylsulfoxide to prepare the stock solution which was stored at 4° C. 30 μl of the stock solution was taken and then mixed with 1.5 ml of physiological saline. 0.1 ml of this mixture was intraperitoneally injected to the test animal. To the control group, 2% dimethylsulfoxide-physiological saline solution was injected. Meanwhile, doxorubicin which is used as the comparative drug was dissolved in 2% dimethylsulfoxide-physiological saline solution and then injected in an amount of 0.5 mg(titer)/kg. The schedule for injection comprises a total of 7 to 8 injections in the manner that after the transplantation of cancer cells 0.1 ml of the test sample per a day is administered for 2 to 4 days followed by the rest for one day. The survival rate was calculated on the basis of the date on which all of one control group is died (approximately 18 to 20 days). The survival rate (T/C, %) was calculated by the following equation as proposed in NIC's protocol: [formula]

HL-60 cells = assay: Cytotoxic activity against HL-60 cells; format: cell-based; conditions: Homo sapiens; HL-60 cells, 48 hours, 37° C.; read-out: ED50, cytotoxic activity against HL-60
Description: (§1) As in the test for the cytotoxic activity against L1210 cells, the test samples were dissoved in ethanol or dimethylsulfoxide in a certain concentration. 0.1 ml of the sample solution was mixed with 0.9 ml of a fresh medium to prepare the dilutions. To each two test tubes having a screw cap were added 100, 50, 25 μl, respectively, of the sample dilutions by means of a micropipet. To each test tube for the test group and the control group (2√n: n=number of the samples) was added 5 ml of the dilutions of HL-60 cells and K-562 cells which were cultured and activated before 24 hours from the beginning of experiment and then diluted in a concentration of 1×10^5 cells/mi. All test tubes were cultured for 48 hours in a CO2 incubator at 37° C. and then the number of cells was counted using a haemacytometer.
(§2) The ED50 value is defined as a concentration (μg/ml) of the sample which inhibits the growth of cancer cells by 50% of the control group and determined according to a method described in NIC's mannual (NIC=National Cancer Institue, U.S.A.). The growth rate Y(%) of cells in the presence of the test sample in each concentration was calculated according to the followign equation: […]
(§3) In the above equation, T means the average cell number per ml in the test group after incubation for 48 hours in the presence of the test samples in each concentration, C means the average cell number per ml in the control group after incubation for 48 hours, and Co means the average cell number per ml in the control group at the beginning of incubation. The Y(%) value at each concentration and log10 value of each concentration were obtained and the regression curve was constructed according to the following equation from those obtained values. In this case, when all the Y(%) value obtained at each concentration is greater than 55% or lower than 45%, the experiment was repeatedly conducted.
(§4) To construct the regression curve Y=A+BX the values A and B were obtained using the following equation. [formula]
(§5) In the above, the value N is the number of selected points which is greater than 2 and lower than, or identical with, the number of cencentration of the test sample, Xi is log(concentration) i, and Yi is the growth ratio at (concentration)i. The value of ED50 was obtained for those obtained slope and intercept.

L1210 cells = assay: Cytotoxic activity against L1210 cells; format: cell-based; conditions: Mus musculus; L1210 cells, 48 hours, 37° C.; read-out: ED50, cytotoxic activity against L1210
Description: To obtain L1210 cells in a logarithmic phase for cytotoxic activity test, in a 250 ml Erlenmeyer flask with a screw cap including Fisher medium warmed to 36° to 37° C. L1210 cells were adjusted to a concentration of 2-3×10^5 cells/ml and then cultured, before 24 hours from the beginning of experiment. Then, the culture solution thus obtained was suspended to prepare a L1210 cell suspension having a concentration of about 0.8-1.0×10^6 cells/ml. Test sample was dissoved in ethanol or dimethylsulfoxide in a certain concentration just before the experiment. 0.1 ml of the sample solution was diluted 10 times with 0.9 ml of a fresh medium. To each screw-capped test tube were added 100, 50, 25 μl, respectively, of the sample dilutions and then added 5 ml of the cell suspension (5×10^4 cells/ml) prepared above to use as the test group. To the test tubes for the control group (2√n: n=number of the samples), only 5 ml of the cell suspension was added. All test tubes were cultured for 48 hours in a CO2 incubator at 37° C. and then the number of cells was counted using a haemacytometer.
as §2, §3, §4, §5

K-562 cells = assay: Cytotoxic activity against K-562 cells; format: cell-based; conditions: Homo sapiens; K562 cells, 48 hours, 37° C.; read-out: ED50, cytotoxic activity against K562
Description: as §1, §2, §3, §4, §5

Compound	IC50 (A549 cancer cells)	responders at 15 µmol/kg (S-180 sarcoma cells)	response vs control in vivo at 15 µmol/kg (S-180 sarcoma cells)	IC50 (HL-60 cells)	IC50 (L1210 cells)	responders at 10 µmol/kg (S-180 sarcoma cells)	response vs control in vivo at 10 µmol/kg (S-180 sarcoma cells)	IC50 (K-562 cells)
CCCCCCCCCCCC(=O)OC(CC=C(C)C)C1=CC(=O)c2c(O)ccc(O)c2C1=O (centres unmarked)	> 20 µg/mL	0%	110%	1 µg/mL (≈ 2.12 µM)	0.7 µg/mL (≈ 1.49 µM)	–	–	–
CCCCCCCC/C=C\CCCCCCCC(=O)OC(CC=C(C)C)C1=CC(=O)c2c(O)ccc(O)c2C1=O (centres unmarked)	> 20 µg/mL	0%	130%	9.6 µg/mL (≈ 17.4 µM)	2.4 µg/mL (≈ 4.34 µM)	–	–	–
CCCCCCCCCCCCCCCCCC(=O)OC(CC=C(C)C)C1=CC(=O)c2c(O)ccc(O)c2C1=O (centres unmarked)	> 20 µg/mL	0%	110%	10 µg/mL (≈ 18 µM)	1.1 µg/mL (≈ 1.98 µM)	–	–	–
CC(C)=CCC(OC(=O)c1ccccc1)C1=CC(=O)c2c(O)ccc(O)c2C1=O (centres unmarked) [2-(1-benzoyloxy-4-methyl-3-pentenyl)-5,8-dihydroxy-1,4-naphthoquinone]	2.1 µg/mL (≈ 5.35 µM)	–	–	0.1 µg/mL (≈ 0.255 µM)	0.1 µg/mL (≈ 0.255 µM)	0%	135%	–
CC(C)=CCC(OC(=O)C(c1ccccc1)c1ccccc1)C1=CC(=O)c2c(O)ccc(O)c2C1=O (centres unmarked) [2-(1-diphenylacetyloxy-4-methyl-3-pentenyl)-5,8-dihydroxy-1,4-naphthoquinone]	6.3 µg/mL (≈ 13.1 µM)	25%	208%	0.4 µg/mL (≈ 0.829 µM)	0.2 µg/mL (≈ 0.414 µM)	–	–	–
CC(C)=CCC(OC(=O)C(C)C)C1=CC(=O)c2c(O)ccc(O)c2C1=O (centres unmarked) [2-(1-isobutanoyloxy-4-methyl-3-pentenyl)-5,8-dihydroxy-1,4-naphthoquinone]	1.9 µg/mL (≈ 5.3 µM)	–	–	0.2 µg/mL (≈ 0.558 µM)	0.003 µg/mL (≈ 0.00837 µM)	12.5%	185%	–
CCC=CCC=CCC=CCCCCCCCC(=O)OC(CC=C(C)C)C1=CC(=O)c2c(O)ccc(O)c2C1=O (centres unmarked) [2-(1-linolenyloxy-4-methyl-3-pentenyl)-5,8-dihydroxy-1,4-naphthoquinone]	> 20 µg/mL	0%	125%	4.8 µg/mL (≈ 8.75 µM)	1.5 µg/mL (≈ 2.73 µM)	–	–	–
CC(C)=CCC(OC(=O)CCl)C1=CC(=O)c2c(O)ccc(O)c2C1=O (centres unmarked) [2-(1-monochloroacetyloxy-4-methyl-3-pentenyl)-5,8-dihydroxy-1,4-naphthoquinone]	4 µg/mL (≈ 11 µM)	–	–	0.3 µg/mL (≈ 0.822 µM)	0.12 µg/mL (≈ 0.329 µM)	0%	102%	–
CCCC(=O)OC(CC=C(C)C)C1=CC(=O)c2c(O)ccc(O)c2C1=O (centres unmarked) [2-(1-n-butanoyloxy-4-methyl-3-pentenyl)-5,8-dihydroxy-1,4-naphthoquinone]	2.5 µg/mL (≈ 6.98 µM)	–	–	0.1 µg/mL (≈ 0.279 µM)	0.01 µg/mL (≈ 0.0279 µM)	0%	181%	–
CC(C)CCOC(CCC(C)C)C1=CC(=O)c2c(O)ccc(O)c2C1=O (centres unmarked) [2-[1-(3-methylbutoxy)-4-methylpentyl]-5,8-dihydroxy-1,4-naphthoquinone]	1.1 µg/mL (≈ 3.05 µM)	0%	186%	–	0.2 µg/mL (≈ 0.555 µM)	–	–	0.09 µg/mL (≈ 0.25 µM)
CC/C=C/CC(=O)OC(CCC(C)C)C1=CC(=O)c2c(O)ccc(O)c2C1=O (stereo not drawn) [2-[1-(3-trans-hexenoyloxy)-4-methylpentyl]-5,8-dihydroxy-1,4-naphthoquinone]	2.4 µg/mL (≈ 6.21 µM)	–	–	–	0.05 µg/mL (≈ 0.129 µM)	0%	160%	0.2 µg/mL (≈ 0.518 µM)
CC/C=C/CC(=O)OC(CCCCCCCCC)C1=CC(=O)c2c(O)ccc(O)c2C1=O (stereo not drawn) [2-[1-(3-trans-hexenoyloxy)-decyl]-5,8-dihydroxy-1,4-naphthoquinone]	7.1 µg/mL (≈ 16 µM)	–	–	–	0.6 µg/mL (≈ 1.36 µM)	0%	130%	0.6 µg/mL (≈ 1.36 µM)
CC/C=C/CC(=O)OC(CCCCC)C1=CC(=O)c2c(O)ccc(O)c2C1=O (stereo not drawn) [2-[1-(3-trans-hexenoyloxy)-hexyl]-5,8-dihydroxy-1,4-naphthoquinone]	1.5 µg/mL (≈ 3.88 µM)	–	–	–	0.2 µg/mL (≈ 0.518 µM)	0%	105%	0.2 µg/mL (≈ 0.518 µM)
